Laboratory results taken from patent US20240199546A1, “INHIBITORS OF SOLUTE CARRIER FAMILY 6A MEMBER 19 (SLC6A19) AND METHODS OF USE THEREOF” (Maze Therapeutics, Inc., priority 2022, published 2024).

Target: T1, human SLC6A19 and TMEM27 (Homo sapiens, UniProt Q695T7)
T1 construct: expressed in transfected cells
T1 sequence (Q695T7 1-634): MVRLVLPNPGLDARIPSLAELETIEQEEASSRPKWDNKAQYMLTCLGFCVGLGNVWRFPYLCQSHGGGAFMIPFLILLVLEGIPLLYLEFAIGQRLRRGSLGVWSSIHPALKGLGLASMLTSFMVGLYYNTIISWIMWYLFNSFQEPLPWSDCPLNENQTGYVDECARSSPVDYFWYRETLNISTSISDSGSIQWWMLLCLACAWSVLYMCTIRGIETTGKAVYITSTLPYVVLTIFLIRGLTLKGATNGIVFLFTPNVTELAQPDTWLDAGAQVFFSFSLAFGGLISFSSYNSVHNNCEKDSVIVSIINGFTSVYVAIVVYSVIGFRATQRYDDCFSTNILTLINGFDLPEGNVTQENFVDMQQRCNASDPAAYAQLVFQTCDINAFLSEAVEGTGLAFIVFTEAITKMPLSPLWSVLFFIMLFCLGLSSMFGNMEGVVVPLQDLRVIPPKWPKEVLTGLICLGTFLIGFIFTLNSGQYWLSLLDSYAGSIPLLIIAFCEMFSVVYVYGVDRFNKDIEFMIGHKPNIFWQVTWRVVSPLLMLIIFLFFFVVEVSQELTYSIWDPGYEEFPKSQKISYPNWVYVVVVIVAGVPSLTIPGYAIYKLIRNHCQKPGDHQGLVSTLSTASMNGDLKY
T1 sequence (Q9HBJ8 15-222 partner): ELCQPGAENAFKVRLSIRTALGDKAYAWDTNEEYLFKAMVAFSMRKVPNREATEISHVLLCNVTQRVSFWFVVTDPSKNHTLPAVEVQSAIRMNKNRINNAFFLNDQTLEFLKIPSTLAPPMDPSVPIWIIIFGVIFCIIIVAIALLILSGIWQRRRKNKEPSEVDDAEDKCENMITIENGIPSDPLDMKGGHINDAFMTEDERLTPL
Assay: Radiolabelled (3H) leucine uptake in CHO cells with doxycycline-inducible expression of human SLC6A19 and TMEM27 (Example B-1)
Type: cell-based
Details: CHO cells with doxycycline-inducible expression of human SLC6A19 and TMEM27, read-out: SLC6A19_Radioligand Uptake Assay IC50
Summary of the method: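 CHO cells were induced with doxycycline for 18 h at 37 °C, washed in HBSS, then exposed to compounds for 1 h: 8-point, 3-fold dilutions in duplicate, 0.5% DMSO final. Uptake measured by scintillation counting after 2 h shaking. Activity normalized with positive control as 0% and DMSO as 100%.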

Compound	IC50 [nM]
O=C(NCc1cc2cc(Cl)c(OCc3cscn3)cc2[nH]1)[C@H]1CCO1 [Compound 259, (R)-N-((5-chloro-6-(thiazol-4-ylmethoxy)-1H-indol-2-yl)methyl)oxetane-2-carboxamide]	121
O=C(NCc1cc2cc(F)c(OCc3cscn3)cc2[nH]1)N1CCC1 [Compound 92, N-((5-fluoro-6-(thiazol-4-ylmethoxy)-1H-indol-2-yl)methyl)azetidine-1-carboxamide]	214
O=C(NCc1cc2cc(F)c(OCc3cscn3)cc2[nH]1)C1CCO1 (centres unmarked) [Compound 264, N-((5-fluoro-6-(thiazol-4-ylmethoxy)-1H-indol-2-yl)methyl)oxetane-2-carboxamide]	243
CSc1cc2cc(CNC(=O)C3(C)CC3)[nH]c2cc1OCc1ccon1 [Compound 391, N-((6-(isoxazol-3-ylmethoxy)-5-(methylthio)-1H-indol-2-yl)methyl)-1-methylcyclopropane-1-carboxamide]	225
CC(=O)NCc1cc2cc(Cl)c(OCC3COC3)cc2[nH]1 [Compound 355, N-((5-chloro-6-(oxetan-3-ylmethoxy)-1H-indol-2-yl)methyl)acetamide]	6600
Cc1cc(COc2cc3[nH]c(CNC(=O)C4CCO4)cc3cc2F)on1 (centres unmarked) [Compound 262, N-((5-fluoro-6-((3-methylisoxazol-5-yl)methoxy)-1H-indol-2-yl)methyl)oxetane-2-carboxamide]	472
Cc1cc(COc2cc3[nH]c(CNC(=O)[C@H]4COCCO4)cc3cc2Cl)on1 [Compound 304, (R)-N-((5-chloro-6-((3-methylisoxazol-5-yl)methoxy)-1H-indol-2-yl)methyl)-1,4-dioxane-2-carboxamide]	718
Cc1nc(COc2cc3[nH]c(CNC(=O)C4(C)CC4)cc3cc2Cl)no1 [Compound 318, N-((5-chloro-6-((5-methyl-1,2,4-oxadiazol-3-yl)methoxy)-1H-indol-2-yl)methyl)-1-methylcyclopropane-1-carboxamide]	226
CCc1cc2cc(CNC(=O)C3(C)CC3)[nH]c2cc1OCc1ccon1 [Compound 61, N-((5-ethyl-6-(isoxazol-3-ylmethoxy)-1H-indol-2-yl)methyl)-1-methylcyclopropane-1-carboxamide]	297
Cc1ccnc(COc2cc3[nH]c(CNC(=O)C4(C)CC4)cc3cc2Cl)c1 [Compound 22, N-((5-chloro-6-((4-methylpyridin-2-yl)methoxy)-1H-indol-2-yl)methyl)-1-methylcyclopropane-1-carboxamide]	2240
Cc1cc(COc2cc(F)c3cc(CNC(=O)C4(C)CC4)[nH]c3c2)on1 [Compound 339, N-((4-fluoro-6-((3-methylisoxazol-5-yl)methoxy)-1H-indol-2-yl)methyl)-1-methylcyclopropane-1-carboxamide]	328
CC1(C(=O)NCc2cc3cc(Cl)c(OCc4cccc(C(F)(F)F)n4)cc3[nH]2)CC1 [Compound 101, N-((5-chloro-6-((6-(trifluoromethyl)pyridin-2-yl)methoxy)-1H-indol-2-yl)methyl)-1-methylcyclopropane-1-carboxamide]	4360
O=C(NCc1cc2cc(Cl)c(OCc3cscn3)cc2[nH]1)N1CCC(O)C1 (racemic) [Compound 366, (R)-N-((5-chloro-6-(thiazol-4-ylmethoxy)-1H-indol-2-yl)methyl)-3-hydroxypyrrolidine-1-carboxamide and (S)-N-((5-chloro-6-(thiazol-4-ylmethoxy)-1H-indol-2-yl)methyl)-3-hydroxypyrrolidine-1-carboxamide]	1530
[2H]C([2H])(NC(C)=O)c1cc2cc(Cl)c(OCc3cc(C)no3)cc2[nH]1 [Compound 345, N-((5-chloro-6-((3-methylisoxazol-5-yl)methoxy)-1H-indol-2-yl)methyl-d2)acetamide]	62.7
Cc1cc(COc2cc3[nH]c(CNC(=O)C4(C)CC4)cc3cc2Cl)sn1 [Compound 398, N-((5-chloro-6-((3-methylisothiazol-5-yl)methoxy)-1H-indol-2-yl)methyl)-1-methylcyclopropane-1-carboxamide]	599
CC1(C(=O)NCc2cc3cc(Cl)c(OCCOC4CC4)cc3[nH]2)CC1 [Compound 335, N-((5-chloro-6-(2-cyclopropoxyethoxy)-1H-indol-2-yl)methyl)-1-methylcyclopropane-1-carboxamide]	126
CC1(C(=O)NCc2cc3cc(Cl)c(OCc4ccc5cc[nH]c5c4)cc3[nH]2)CC1 [Compound 350, N-((6-((1H-indol-6-yl)methoxy)-5-chloro-1H-indol-2-yl)methyl)-1-methylcyclopropane-1-carboxamide]	> 8380
Cc1cnc(COc2cc3[nH]c(CNC(=O)C4(C)CC4)cc3cc2F)o1 [Compound 73, N-((5-fluoro-6-((5-methyloxazol-2-yl)methoxy)-1H-indol-2-yl)methyl)-1-methylcyclopropane-1-carboxamide]	1470
CN(C(=O)NCc1cc2cc(Cl)c(OCc3cscn3)cc2[nH]1)C1CC1 [Compound 359, 3-((5-chloro-6-(thiazol-4-ylmethoxy)-1H-indol-2-yl)methyl)-1-cyclopropyl-1-methylurea]	231
Cc1cc(COc2cc3[nH]c(CNC(=O)CC4CCCO4)cc3cc2Cl)on1 (centres unmarked) [Compound 310, N-((5-chloro-6-((3-methylisoxazol-5-yl)methoxy)-1H-indol-2-yl)methyl)-2-(tetrahydrofuran-2-yl)acetamide]	2520

The remaining lines, values ahead:

IC50 [nM]	Compound
365	O=C(NCc1cc2cc(C3CC3)c(OCc3cscn3)cc2[nH]1)N1CCCC1 [Compound 652, N-((5-cyclopropyl-6-(thiazol-4-ylmethoxy)-1H-indol-2-yl)methyl)pyrrolidine-1-carboxamide]
387	Cc1cc(COc2cc3[nH]c(CNC(=O)C(C)C#N)cc3cc2Cl)on1 (racemic) [Compound 486, (S)-N-((5-chloro-6-((3-methylisoxazol-5-yl)methoxy)-1H-indol-2-yl)methyl)-2-cyanopropanamide and (R)-N-((5-chloro-6-((3-methylisoxazol-5-yl)methoxy)-1H-indol-2-yl)methyl)-2-cyanopropanamide]
82.4	CC1(C(=O)NCc2cc3cc(Cl)c(COc4ccon4)cc3[nH]2)CC1 [Compound 613, N-((5-chloro-6-((isoxazol-3-yloxy)methyl)-1H-indol-2-yl)methyl)-1-methylcyclopropane-1-carboxamide]
337	O=C(NCc1cc2c(F)cc(OCc3cscn3)cc2[nH]1)N1CCC1 [Compound 422, N-((4-fluoro-6-(thiazol-4-ylmethoxy)-1H-indol-2-yl)methyl)azetidine-1-carboxamide]
116	CCC(=O)NCc1cc2c(F)cc(OCc3cscn3)cc2[nH]1 [Compound 515, N-((4-fluoro-6-(thiazol-4-ylmethoxy)-1H-indol-2-yl)methyl)propionamide]
578	Cc1cc(COc2cc3[nH]c(CNC(=O)C(C)(C)C#N)cc3cc2Cl)on1 [Compound 485, N-((5-chloro-6-((3-methylisoxazol-5-yl)methoxy)-1H-indol-2-yl)methyl)-2-cyano-2-methylpropanamide]
293	Cc1c(CNC(=O)N2CCC2)[nH]c2cc(OCc3cscn3)c(Cl)cc12 [Compound 473, N-((5-chloro-3-methyl-6-(thiazol-4-ylmethoxy)-1H-indol-2-yl)methyl)azetidine-1-carboxamide]
112	O=C(NCc1cc2cc(Cl)c(OCc3cscn3)cc2[nH]1)C(F)CF (racemic) [Compound 639, N-((5-chloro-6-(thiazol-4-ylmethoxy)-1H-indol-2-yl)methyl)-2,3-difluoropropanamide]
152	CC1(C(=O)NCc2cc3cc(F)c(COc4ccon4)cc3[nH]2)CC1 [Compound 612, N-((5-fluoro-6-((isoxazol-3-yloxy)methyl)-1H-indol-2-yl)methyl)-1-methylcyclopropane-1-carboxamide]
149	[2H]C([2H])([2H])C1(C(=O)NCc2cc3cc(F)c(OCc4cscn4)cc3[nH]2)CC1 [Compound 482, N-((5-fluoro-6-(thiazol-4-ylmethoxy)-1H-indol-2-yl)methyl)-1-(methyl-d3)cyclopropane-1-carboxamide]
95.6	Cc1cc(COc2cc3[nH]c(CNC(=O)C(C)(F)F)cc3cc2F)on1 [Compound 441, 2,2-difluoro-N-((5-fluoro-6-((3-methylisoxazol-5-yl)methoxy)-1H-indol-2-yl)methyl)propanamide]

Same assay, conditions: SLC6A19_Radioligand Uptake Assay IC50, CHO cells with doxycycline-inducible expression of human SLC6A19 and TMEM27

IC50 [nM]	Compound
376	Cc1cc(COc2cc3[nH]c(CNC(N)=O)cc3cc2Cl)on1 [Compound 637, 1-((5-chloro-6-((3-methylisoxazol-5-yl)methoxy)-1H-indol-2-yl)methyl)urea]
